Values of other authors as cited in US20040142333A1, “Novel secreted proteins and their uses” (priority 2000, published 2004).
Where a SMILES comes first, the peptide text is derived from it. [ ]: non-standard residue; d: D form. The star is where a group is joined. 4Abz = Nc1ccc(C(=O)O)cc1; NHOH = ON*

Key:
[1] = tested on: human metastatic melanoma (M24 cells)
[2] = tested on: M24 cells; settings: murine metastasis model
[3] = target: T1, MMP-1 (Homo sapiens, UniProt P03956); settings: read-out: IC50 against MMP-1
T1 sequence (P03956 100-469): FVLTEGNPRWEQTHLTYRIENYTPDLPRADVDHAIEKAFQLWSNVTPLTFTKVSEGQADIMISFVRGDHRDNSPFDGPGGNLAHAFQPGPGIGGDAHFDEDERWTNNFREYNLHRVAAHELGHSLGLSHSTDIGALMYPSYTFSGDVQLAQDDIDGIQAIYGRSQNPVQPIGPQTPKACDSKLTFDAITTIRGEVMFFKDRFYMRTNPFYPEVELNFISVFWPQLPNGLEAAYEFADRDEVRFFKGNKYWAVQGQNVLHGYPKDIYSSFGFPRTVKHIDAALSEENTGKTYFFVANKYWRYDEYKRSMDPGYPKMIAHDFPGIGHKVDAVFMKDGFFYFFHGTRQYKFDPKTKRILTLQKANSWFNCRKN

[4] = target: MMP-3 (Homo sapiens, UniProt P08254); settings: read-out: IC50 against MMP-3
[5] = target: MMP-8 (Homo sapiens, UniProt P22894); settings: read-out: IC50 against MMP-8
[6] = target: MMP-9 (Homo sapiens, UniProt P14780); settings: read-out: IC50 against MMP-9
Sequence of MMP-9 (P14780 94-707, species assumed): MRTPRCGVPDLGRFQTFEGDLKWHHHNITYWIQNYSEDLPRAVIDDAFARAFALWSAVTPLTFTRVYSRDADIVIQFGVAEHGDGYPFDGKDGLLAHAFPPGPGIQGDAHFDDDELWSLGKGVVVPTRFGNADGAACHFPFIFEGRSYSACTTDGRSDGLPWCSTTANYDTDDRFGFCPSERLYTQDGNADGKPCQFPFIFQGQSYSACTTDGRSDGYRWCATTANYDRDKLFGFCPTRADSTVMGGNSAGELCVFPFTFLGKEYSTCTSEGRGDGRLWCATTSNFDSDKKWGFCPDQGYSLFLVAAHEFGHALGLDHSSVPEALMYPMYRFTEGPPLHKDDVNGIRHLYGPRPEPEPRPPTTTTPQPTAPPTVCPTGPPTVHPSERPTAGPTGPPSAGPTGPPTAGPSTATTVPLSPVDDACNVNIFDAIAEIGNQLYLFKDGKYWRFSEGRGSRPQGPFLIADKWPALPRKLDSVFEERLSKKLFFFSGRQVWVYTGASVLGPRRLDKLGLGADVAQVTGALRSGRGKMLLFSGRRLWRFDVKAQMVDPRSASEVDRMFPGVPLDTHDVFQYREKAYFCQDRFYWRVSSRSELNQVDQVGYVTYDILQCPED

Sequence of MMP-3 (P08254 100-477, species assumed): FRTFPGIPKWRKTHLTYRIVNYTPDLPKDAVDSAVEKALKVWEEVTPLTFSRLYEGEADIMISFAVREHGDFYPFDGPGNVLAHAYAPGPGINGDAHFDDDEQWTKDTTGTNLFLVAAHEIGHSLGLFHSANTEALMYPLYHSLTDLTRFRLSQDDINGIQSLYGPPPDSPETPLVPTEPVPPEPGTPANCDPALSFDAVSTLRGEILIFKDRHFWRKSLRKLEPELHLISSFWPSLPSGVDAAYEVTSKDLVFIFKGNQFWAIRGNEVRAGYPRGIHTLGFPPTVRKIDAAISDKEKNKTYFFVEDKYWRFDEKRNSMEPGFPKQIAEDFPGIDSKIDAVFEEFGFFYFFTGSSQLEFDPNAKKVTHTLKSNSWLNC
Sequence of MMP-8 (P22894 101-467, species assumed): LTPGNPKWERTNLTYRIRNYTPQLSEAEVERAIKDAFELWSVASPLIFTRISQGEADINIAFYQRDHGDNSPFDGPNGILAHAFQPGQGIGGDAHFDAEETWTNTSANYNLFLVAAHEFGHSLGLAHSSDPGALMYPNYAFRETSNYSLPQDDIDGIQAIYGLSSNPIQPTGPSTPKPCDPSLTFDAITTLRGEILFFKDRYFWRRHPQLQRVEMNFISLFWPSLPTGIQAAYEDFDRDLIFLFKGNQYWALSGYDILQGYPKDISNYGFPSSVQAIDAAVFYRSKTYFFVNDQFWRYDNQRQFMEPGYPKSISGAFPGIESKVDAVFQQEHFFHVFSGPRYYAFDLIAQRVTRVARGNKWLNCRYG

In the case of contortrostatin, the “cell adhesion to type I collagen, vitronectin, and fibronectin” value [1] is given as “inhibit” and the “lung colonization of M24 cells” value [2] is given as “inhibits lung colonization”.

In the case of `CC(C)C[C@@H](NC(=O)[C@@H]1CCCN1C(=O)CNC(=O)c1ccc(N)cc1)C(=O)N[C@H](C)C(=O)NO` [MMP inhibitor I] (H-[4Abz]GP[dL][dA]-{NHOH}), the IC50 [3] is given as 1 µM, the IC50 [4] is given as 150 µM and the IC50 [5] is given as 1 µM. The IC50 [6] was 30 µM.
